The text below walks through data of patent publication US20140147434A1, “NCoR1 is a Physiological Modulator of Muscle Mass and Oxidative Function” (ECOLE POLYTECHNIQUE FEDERALE DE LAUSANNE (EPFL), priority 2011, published 2014).

In assay [1] the test system is NCoR1. The assay is described as follows: NCoR1 localization by immunofluorescence and subcellular fractionation in 293T cells. Type of assay: cell-based. As to conditions: one hour after stimulation with 1 μM insulin. As to the method: (§1) (A-C) Localization of NCoR1 protein was determined either by immunofluorescence and quantified (A and B) and by western blot (C). 293T cells grown without (−) or with (+) 1 µM insulin for 1 hr were stained by DAPI or anti-NCoR1 (A). Quantification of nuclear NCoR1 is shown in (B). Nuclear and cytosolic fractions were separated from FLAG-NCoR1 transfected 293T cells after a 1 hr-stimulation without (−) or with 1 μM insulin (+) and protein levels were determined by western blotting (C). (D) mRNA levels of NCoRs and its target genes determined by qRT-PCR in MEFs cultured for 24 hr in 5 or 25 mM glucose (n=6). (E) NCoR1 protein was determined by western blotting from MEFs cultured for 24 hr in 5 or 25 mM glucose. (F) NCoR1 and SMRT mRNA was determined in MEFs cultured for 48 hr in 0, 5, and 25 mM glucose. (G) NCoR1 protein was determined by western blotting from MEFs cultured for 24 hrs in 0, 5, or 25 mM glucose. […] (I) NCoR1 protein determined by western blotting from MEFs cultured as indicated in (G). (J) NCoR1 mRNA measured by qRT-PCR in muscles of resting mice or 3 hrs after an endurance run (14-wk old; n=5), in mice that were fed for 20 wks either with HFD or CD (28-wk old; n=8), in mice that were fasted or fed for 16 hrs (14-wk old; n=10), and in 6-month or 2-year old mice (n=10). […] Data are expressed as mean±SEM.
(A) Localization of NCoR1 is determined by the immunofluorescence experiments. […]

Another assay deals with Ucp3 promoter. The assay is described as follows: ChIP of endogenous NCoR1 recruitment to the Ucp3 promoter PPREs in C2C12 myotubes. Type of assay: cell-based, mouse. Conditions: 6 hr after addition of 100 nM GW501516. The text has this: (A, B, E, F, and H) NCoR1 recruitment to the PPREs on mouse Ucp3 promoter and to the ERR-RE on human and mouse Pdk4 promoter determined by ChIP in NIH-3T3 cells transfected with an NCoR1-FLAG vector or in C2C12 myotubes. A schematic of the promoters of the Ucp3 (A) and Pdk4 (E) genes and the sequence alignment of the mouse, rat and human Pdk4 promoter is also shown to highlight the conservation of the NR1/2 (or ERR-RE) (E). Boxes indicate putative PPREs in the Ucp3 and the NR1/2, IRS, and Sp1 in the Pdk4 promoter. ChIP experiments for the Ucp3 promoter were performed in C2C12 myotubes both before and 6 hr after addition of a PPARIβ/δ (100 nM GW501516); not detected. ChIP experiments in HEK293 cells transfected with FLAG-NCoR1 and HA-ERRα vector (H). (C and G) Binding of acetylated histone 4 (H4) to the PPREs on the Ucp3 and to the NR1/2 on the Pdk4 promoters in ChIP assays, using either immortalized NCoR1^L2/L2MEFs, infected with an adenovirus either expressing GFP or Cre recombinase, or C2C12 myotubes infected with the Ad-shNCoR1 virus. Representative data is shown from 3 experiments. (D) Interaction between PPARβ/δ and NCoR1 determined by in vitro co-IP experiments from HEK293 cells, in which NCoR1-FLAG and/or V5-PPARβ/δ are expressed. […] Data are expressed as mean±SEM. […]

Assay [2] has as its system NCoR1. Description: NCoR1 mRNA and protein in MEFs cultured with oleic acid. The format is cell-based, mouse. As to conditions: oleic acid added to the medium (0.03 mM, 48 hr), independently of the glucose concentration. Here is the method: as §1, with “mean±SEM. […]” for “mean±SEM.”
Another assay has as its system SMRT. Description: SMRT mRNA in MEFs cultured with oleic acid. Type of assay: cell-based, mouse. As to conditions: with OA in the absence of glucose. Here is the method:
The mRNA expression levels were measured in cells and tissues using qRT-PCR (Lagouge et al., 2006).

With insulin, in the assay on NCoR1 [1], the “amounts of endogenous NCoR1 or transfected FLAG-NCoR1 detected in nuclei” value is “higher amounts”. `Cc1cc(SCc2sc(-c3ccc(C(F)(F)F)cc3)nc2C)ccc1OCC(=O)O` [GW501516]: the “recruitment of NCoR1 to the Ucp3 promoter” value with Ucp3 promoter is reported as “robustly inhibited”.

Regarding `CCCCCCCC/C=C\CCCCCCCC(=O)O` [oleic acid], the NCoR1 levels entry in the assay on NCoR1 [2] is given as “decreased”. Besides, the “SMRT mRNA levels” value in the assay with SMRT is “only a small difference”.
